According to patent US8623877B2, “Substituted N-heteroaryl tetrahydro-isoquinoline derivatives, preparation and therapeutic use thereof” (Sanofi, priority 2010, dated 2014):
Read-outs that look alike come from different tables or passages of the source.

Key:
[1] = molecular target: T1, rhesus H3 (Macaca mulatta, UniProt Q865E1); assay: Rhesus H3 [3H]-Methylhistamine radioligand binding assay (SPA, cell membranes); design: species or system rhesus monkey (Macacca Mulatta); conditions: [3H]-Methylhistamine 2 nM, Cheng-Prusoff
T1 construct: 445 amino acid H3 receptor; expressed in transfected cells; host or cells: Flp-In T-REx 293 Cell Line (Invitrogen), pcDNA5/FRT/TO, induced with tetracycline
T1 sequence (Q865E1 1-445): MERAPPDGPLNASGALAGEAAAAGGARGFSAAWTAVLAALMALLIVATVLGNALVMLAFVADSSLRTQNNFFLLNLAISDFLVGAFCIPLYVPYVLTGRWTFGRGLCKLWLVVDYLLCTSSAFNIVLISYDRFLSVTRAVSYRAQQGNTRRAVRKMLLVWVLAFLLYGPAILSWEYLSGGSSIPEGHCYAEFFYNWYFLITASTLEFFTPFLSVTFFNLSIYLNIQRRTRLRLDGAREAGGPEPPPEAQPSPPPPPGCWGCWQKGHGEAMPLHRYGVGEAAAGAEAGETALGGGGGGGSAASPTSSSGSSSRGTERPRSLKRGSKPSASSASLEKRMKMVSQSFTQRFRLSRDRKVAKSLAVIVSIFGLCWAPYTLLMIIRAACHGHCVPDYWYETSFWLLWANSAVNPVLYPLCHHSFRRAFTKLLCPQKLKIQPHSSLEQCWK
Protocol: (§1) Rhesus H3 membranes were prepared from the Flp-In T-REx 293 Cell Line (Invitrogen) stably transfected with pcDNA5/FRT/TO (Invitrogen) containing the rhesus monkey (Macacca Mulatta) 445 amino acid H3 receptor. (Genbank #AY231164). Stably transfected cultures were amplified in tissue culture flasks by standard tissue culture methods and induced to express rhesus H3 by exposure to 500 ng/ml tetracycline (Cellgro) for 24 hours. After induction, cells were dissociated from flasks utilizing Cell Stripper (Cellgro). Cells were centrifuged (1 K×g, 5 min) and pellet frozen in an ethanol-dry ice bath to disrupt cell membranes. Frozen cell pellet was re-suspended in 5 mM HEPES (pH 7.4, Invitrogen) at 10 ml/1000 cm2 of harvested cells. The cell suspension was drawn through an 18 gauge needle (2-3×) followed by a 23 gauge needle (2-3×) to further disrupt cell membranes. The cell suspension was centrifuged (40K×g, 30 min). Cell membrane pellet was re-suspended in 5 mM HEPES (pH 7.4, Invitrogen) at a final protein concentration of 10 mg/ml. Rhesus H3 membranes were stored under liquid nitrogen prior to use in [3H]-Methylhistamine and GTPγS radioligand binding assays.
(§2) Rhesus H3 radioligand binding assay was performed using rhesus H3 receptor membranes (prepared as described above), [3H]-Methylhistamine (Perkin Elmer) and WGA SPA beads (wheat germ agglutinin scintillation proximity assay) beads (Amersham). The assay was performed in 96-well Opti-Plates (Packard). Each reaction contained 50 μl rhesus H3 membranes (20-30 μg total protein), 50 μl WGA SPA beads (0.1 μg) and 50 μl of 83 Ci/mmol [^3H]-Methylhistamine (final concentration 2 nM) and 50 μl of tested compound. The compounds of this invention and/or vehicle were diluted with binding buffer from 10 mM DMSO stocks. Assay plates were sealed with TopSeal (Perkin Elmer) and mixed on shaker (25° C., 1 hour). Assay plates were read on TopCount scintillation counter (Packard). Results were analyzed by Hill transformation and Ki values were determined by Cheng-Prusoff equation. Similar procedure was employed to determine the binding data for rat.

[2] = molecular target: Rat H3 (Rattus norvegicus, UniProt Q9QYN8); assay: Rat H3 radioligand binding assay (similar procedure)
Sequence of Rat H3 (Q9QYN8 whole entry): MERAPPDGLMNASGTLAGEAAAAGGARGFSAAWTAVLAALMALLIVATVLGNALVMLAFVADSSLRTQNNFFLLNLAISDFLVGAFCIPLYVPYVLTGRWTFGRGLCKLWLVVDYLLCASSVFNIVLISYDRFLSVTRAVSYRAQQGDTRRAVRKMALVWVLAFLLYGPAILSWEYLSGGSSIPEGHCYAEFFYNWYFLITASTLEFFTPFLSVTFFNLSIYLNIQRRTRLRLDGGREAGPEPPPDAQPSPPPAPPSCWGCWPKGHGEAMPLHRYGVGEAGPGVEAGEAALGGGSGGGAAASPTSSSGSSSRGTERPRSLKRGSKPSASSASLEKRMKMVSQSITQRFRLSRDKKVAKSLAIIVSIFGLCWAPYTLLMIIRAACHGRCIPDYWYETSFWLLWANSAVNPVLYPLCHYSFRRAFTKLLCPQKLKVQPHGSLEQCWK
Protocol: as §2

[3] = molecular target: T1, rhesus H3; assay: GTPγS radioligand binding assay, inhibition of rhesus H3 constitutive functional activity in cell membranes; assay type: biochemical, rhesus monkey (Macacca Mulatta); conditions: basal rhesus H3-mediated GTPγS binding
Protocol: as §1

[4] = rat H3, similar procedure to the rhesus binding assay, read-out: Rat H3 Binding ki

| Structure (SMILES) | Ki [1] | Ki [2, 4] | GTPγS-35 ASSAY % Inverse Agonism [3] | Ki [2] |
| --- | --- | --- | --- | --- |
| CNC(=O)c1ccc(N2CCc3cc(N4CC[C@H](N5CCC[C@@H]5C)C4)ccc3C2)nc1 [Example 1, N-Methyl-6-[6-((2S,3′S)-2-methyl-[1,3′]bipyrrolidinyl-1′-yl)-3,4-dihydro-1H-isoquinolin-2-yl]-nicotinamide] | 0.39 nM | 0.95 nM |  |  |
| C[C@H]1CCCN1[C@H]1CCN(c2ccc3c(c2)CCN(c2ccc(C(F)(F)F)cn2)C3)C1 [Example 2, 6-((2S,3′S)-2-Methyl-[1,3′]bipyrrolidinyl-1′-yl)-2-(5-trifluoromethyl-pyridin-2-yl)-1,2,3,4-tetrahydro-isoquinoline] | 29 nM | 56 nM | −37.4% |  |
| C[C@H]1CCCN1[C@H]1CCN(c2ccc3c(c2)CCN(c2cccnc2Cl)C3)C1 [Example 3, 2-(2-Chloro-pyridin-3-yl)-6-((2S,3′S)-2-methyl-[1,3′]bipyrrolidinyl-1′-yl)-1,2,3,4-tetrahydro-isoquinoline] | 2.2 nM | 6.1 nM | −14.7% |  |
| Cc1cccc(N2CCc3cc(N4CC[C@H](N5CCC[C@@H]5C)C4)ccc3C2)n1 [Example 4, 6-((2S,3′S)-2-Methyl-[1,3′]bipyrrolidinyl-1′-yl)-2-(6-methyl-pyridin-2-yl)-1,2,3,4-tetrahydro-isoquinoline] | 0.48 nM | 0.4 nM | −46.7% |  |
| C[C@H]1CCCN1[C@H]1CCN(c2ccc3c(c2)CCN(c2cnc(Br)nc2)C3)C1 [Example 5, 2-(2-Bromo-pyrimidin-5-yl)-6-((2S,3′S)-2-methyl-[1,3′]bipyrrolidinyl-1′-yl)-1,2,3,4-tetrahydro-isoquinoline] | 24 nM | 92 nM | −36.4% |  |
| C[C@H]1CCCN1[C@H]1CCN(c2ccc3c(c2)CCN(c2cncnc2)C3)C1 [Example 6, 6-((2S,3′S)-2-Methyl-[1,3′]bipyrrolidinyl-1′-yl)-2-pyrimidin-5-yl-1,2,3,4-tetrahydro-isoquinoline] | 0.98 nM | 1.5 nM | −48.7% |  |
| C[C@H]1CCCN1[C@H]1CCN(c2ccc3c(c2)CCN(c2cnc4ccccc4c2)C3)C1 [Example 7, 3-[6-((2S,3′S)-2-Methyl-[1,3′]bipyrrolidinyl-1′-yl)-3,4-dihydro-1H-isoquinolin-2-yl]-quinoline] | 0.28 nM | 26 nM | −32.5% |  |
| C[C@H]1CCCN1[C@H]1CCN(c2ccc3c(c2)CCN(c2nc4ccccc4o2)C3)C1 [Example 8, 2-Benzooxazol-2-yl-6-((2S,3′S)-2-methyl-[1,3′]bipyrrolidinyl-1′-yl)-1,2,3,4-tetrahydro-isoquinoline] | 680 nM | 1200 nM | −29.4% |  |
| Cc1ccc(S(=O)(=O)N2CCc3cc(N4CCc5cc(N6CC[C@H](N7CCC[C@@H]7C)C6)ccc5C4)ccc3C2)cc1 [Example 9, 6-((2S,3′S)-2-Methyl-[1,3′]bipyrrolidinyl-1′-yl)-2′-(toluene-4-sulfonyl)-3,4,1′,2′,3′,4′-hexahydro-1H-[2,6′]biisoquinolinyl] | 180 nM | 380 nM | −13.0% |  |
| COc1cncc(N2CCc3cc(N4CC[C@H](N5CCC[C@@H]5C)C4)ccc3C2)c1 [Example 10, 2-(5-Methoxy-pyridin-3-yl)-6-((2S,3′S)-2-methyl-[1,3′]bipyrrolidinyl-1′-yl)-1,2,3,4-tetrahydro-isoquinoline] | 0.24 nM | 0.5 nM | −16.7% |  |
| Cc1cc(C(F)(F)F)cc(N2CCc3cc(N4CC[C@H](N5CCC[C@@H]5C)C4)ccc3C2)n1 [Example 11, 6-((2S,3′S)-2-Methyl-[1,3′]bipyrrolidinyl-1′-yl)-2-(6-methyl-4-trifluoromethyl-pyridin-2-yl)-1,2,3,4-tetrahydro-isoquinoline] | 15 nM | 50 nM | −20.9% |  |
| C[C@H]1CCCN1[C@H]1CCN(c2ccc3c(c2)CCN(c2ccc(F)cn2)C3)C1 [Example 12, 2-(5-Fluoro-pyridin-2-yl)-6-((2S,3′S)-2-methyl-[1,3′]bipyrrolidinyl-1′-yl)-1,2,3,4-tetrahydro-isoquinoline] | 1.3 nM | 6.1 nM | −23.3% |  |
| Cc1ccnc(N2CCc3cc(N4CC[C@H](N5CCC[C@@H]5C)C4)ccc3C2)c1 [Example 13, 6-((2S,3′S)-2-Methyl-[1,3′]bipyrrolidinyl-1′-yl)-2-(4-methyl-pyridin-2-yl)-1,2,3,4-tetrahydro-isoquinoline] | 0.58 nM | 1.7 nM | −27.3% |  |
| C[C@H]1CCCN1[C@H]1CCN(c2ccc3c(c2)CCN(c2ncc(C(F)(F)F)cc2Cl)C3)C1 [Example 14, 2-(3-Chloro-5-trifluoromethyl-pyridin-2-yl)-6-((2S,3′S)-2-methyl-[1,3′]bipyrrolidinyl-1′-yl)-1,2,3,4-tetrahydro-isoquinoline] | 35 nM | 310 nM | −18.3% |  |
| C[C@H]1CCCN1[C@H]1CCN(c2ccc3c(c2)CCN(c2cccc(N4CCCC4)n2)C3)C1 [Example 15, 6-((2S,3′S)-2-Methyl-[1,3′]bipyrrolidinyl-1′-yl)-2-(6-pyrrolidin-1-yl-pyridin-2-yl)-1,2,3,4-tetrahydro-isoquinoline] | 4.8 nM | 22 nM | −13.8% |  |
| C[C@H]1CCCN1[C@H]1CCN(c2ccc3c(c2)CCN(c2ccc(Cl)cn2)C3)C1 [Example 16, 2-(5-Chloro-pyridin-2-yl)-6-((2S,3′S)-2-methyl-[1,3′]bipyrrolidinyl-1′-yl)-1,2,3,4-tetrahydro-isoquinoline] | 4.6 nM | 27 nM | −21.9% |  |
| C[C@H]1CCCN1[C@H]1CCN(c2ccc3c(c2)CCNCC3)C1 [Example 17, 7-((2S,3′S)-2-Methyl-1,3′-bipyrrolidinyl-1′-yl)-2,3,4,5-tetrahydro-1H-3-benzazepine] | 1.2 nM |  | −14.7% | 5.9 nM |
| C[C@H]1CCCN1[C@H]1CCN(c2ccc3c(c2)CCN(c2cnc4ccccc4c2)CC3)C1 [Example 18, 7-((2S,3′S)-2-Methyl-[1,3′]bipyrrolidinyl-1′-yl)-3-quinolin-3-yl-2,3,4,5-tetrahydro-1H-benzo[d]azepine] | 26 nM | 1.2 nM | −8.2% |  |
| C[C@H]1CCCN1[C@H]1CCN(c2ccc3c(c2)CCN(c2ccc(C(F)(F)F)cn2)CC3)C1 [Example 19, 7-((2S,3′S)-2-Methyl-[1,3′]bipyrrolidinyl-1′-yl)-3-(5-trifluoromethyl-pyridin-2-yl)-2,3,4,5-tetrahydro-1H-benzo[d]azepine] | 25 nM | 0.93 nM | −8.9% |  |
| CNC(=O)c1ccc(N2CCc3ccc(N4CC[C@H](N5CCC[C@@H]5C)C4)cc3CC2)nc1 [Example 20, N-Methyl-6-[7-((2S,3′S)-2-methyl-[1,3′]bipyrrolidinyl-1′-yl)-1,2,4,5-tetrahydro-benzo[d]azepin-3-yl]-nicotinamide] | 10 nM | 0.27 nM | −8.4% |  |
